From US20080213341A1, “Butyric Acid Esters of Carbohydrates and Carbohydrate Polyols” (priority 2005, published 2008)
Where two headings read alike, the source gives them in different places.

What was measured:
[1] = test system: intestinal bacteria of the human large intestine; experiment: In vitro fermentation with intestinal bacteria of the human large intestine (feces suspension); type: in vitro ADME; conditions: for x-fold increase in the butyrate concentration in the fermentation medium in comparison to the nonesterified carbohydrate or carbohydrate polyol: in vitro fermentation; for butyrate release/formation (in words): in vitro fermentation with human intestinal bacteria; for increase of the butyrate in the fermentation broths: after a short fermentation time
Procedure: It was investigated in in vitro fermentation experiments with intestinal bacteria of the human large intestine whether butyric acid esters listed above are hydrolyzed and metabolized by bacteria of the large intestine or their enzymes and butyrate is released in the […]. The following medium was used for in vitro fermentation experiments: [table] 9 ml of the […] medium described above were treated with 0.5% (w/v) of the butyric acid ester to be tested and 0.2% (w/v) of taurocholic acid. This medium was subsequently inoculated with 1 ml of a 10% strength feces suspension (mixed feces of three subjects) in anaerobic 50 mmol/l phosphate buffer, pH 7.0, to which 0.5 g/l of cysteine/HCl had been added as a reductant. Hungate tubes were incubated at 37° C. with shaking for 72 h, samples were taken at different times and these were investigated for short-chain fatty acids, lactic acid and pH. The extent of the metabolization of the test substances was carried out by means of the determination of the release of butyrate.

[2] = oral administration / uptake via food; cited from earlier work
[3] = test system: colon cancer; conditions: orally administered; cited from earlier work
[4] = 0.5% (w/v) substrate, human feces suspension, 37° C., 72 h

| g of butyrate/g of substrate [1, 4] | x-fold increase in the butyrate concentration in the fermentation medium in comparison to the nonesterified carbohydrate or carbohydrate polyol ([1]; 72 h) [x-fold] | butyrate release/formation (in words) [1] | Compound | further results |
| --- | --- | --- | --- | --- |
| 0.7 g of butyrate/g of substrate | 2.5 | high butyrate formation | Tetrabutyrylxylitol | x-fold increase in the butyrate concentration in the fermentation medium in comparison to the nonesterified carbohydrate or carbohydrate polyol ([1]; 72 h, listed as tetrabutyrylxylitol): more than two-fold |
| 0.2 g of butyrate/g of substrate |  |  | Isomalt [reference compound] | g of butyrate/g of substrate ([1]; 0.5% (w/v) substrate, human feces suspension, 37° C., 72 h, listed as isomalt): approximately 0.2 g of butyrate/g of substrate |
| 0.1 g of butyrate/g of substrate | 0.5 |  | Octabutyrylisomalt | g of butyrate/g of substrate ([1]; 0.5% (w/v) substrate, human feces suspension, 37° C., 72 h, listed as octabutyrylisomalt): about 0.1 g of butyrate/g of substrate |

More lines, now with the values behind:

| Compound | g of butyrate/g of substrate [1, 4] | x-fold increase in the butyrate concentration in the fermentation medium in comparison to the nonesterified carbohydrate or carbohydrate polyol ([1]; 72 h) [x-fold] | butyrate release/formation (in words) [1] | further results |
| --- | --- | --- | --- | --- |
| Hexabutyrylsorbitol | 0.2 g of butyrate/g of substrate | 0.8 |  |  |
| Pentabutyrylxylitol | 0.4 g of butyrate/g of substrate | 1.5 | Large amounts of butyrate were also released |  |
| Tetrabutyryldiacetylsorbitol |  |  |  | g of butyrate/g of substrate [1]: 0.3 g of butyrate/g of substrate |
| Tetrabutyrylsorbitol | 0.7 g of butyrate/g of substrate | 2.7 | high butyrate formation | increase of the butyrate in the fermentation broths [1]: strong increase; x-fold increase in the butyrate concentration in the fermentation medium in comparison to the nonesterified carbohydrate or carbohydrate polyol ([1]; 72 h, listed as tetrabutyrylsorbitol): more than twofold |
| Tributyrylxylitol | 0.6 g of butyrate/g of substrate | 2.2 | Large amounts of butyrate were also released |  |
| Tributyrylsorbitol | 0.7 g of butyrate/g of substrate | 2.8 | high butyrate formation | increase of the butyrate in the fermentation broths [1]: strong increase; x-fold increase in the butyrate concentration in the fermentation medium in comparison to the nonesterified carbohydrate or carbohydrate polyol ([1]; 72 h, listed as tributyrylsorbitol): more than twofold |
| Heptabutyryldiacetylisomalt | 0.1 g of butyrate/g of substrate | 0.4 |  | g of butyrate/g of substrate ([1]; 0.5% (w/v) substrate, human feces suspension, 37° C., 72 h, listed as heptabutyryldiacetylisomalt): about 0.1 g of butyrate/g of substrate |
| Pentabutyrylisomalt | 0.2 g of butyrate/g of substrate | 1.3 |  |  |
| CCCC(=O)OCC(COC(=O)CCC)OC(=O)CCC [tributyrin] |  |  |  | cleavage / absorption in the small intestine [2]: rapidly cleaved in the anterior small intestine; activity in the prevention of colon cancer [3]: inactive |
| CCCC(=O)O [butyrate, butyric acid] |  |  |  | cleavage / absorption in the small intestine [2]: rapidly and completely absorbed in the small intestine |
